Experiment: Dissolution measurements (Distek 2100B USP 2 dissolution system, UV/Vis probe at 324 nm)
Assay type: physicochemical
Conditions: 1 L deionized water, 200 rpm, amount for 20 ppm Compound I
Procedure: Dissolution Measurements: The performance of the sucrose/Compound I co-crystallized product was compared to that of the Compound I starting material and sucrose/Compound I powder mixtures under standard conditions using a Distek 2100B USP 2 dissolution system. Sufficient amounts of each sample were added in order to create 20 ppm solutions of Compound I. These amounts were 20 mg of pure Compound I, 200 mg of the 10% mixtures, 400 mg of the 5% mixtures and 2.00 g of the 1% mixtures in 1 L of deionized water. A stirring rate of 200 rpm was used.
The concentration of Compound I in solution was monitored continuously as a function of time using a UV/Vis spectrometer probe which measured absorbance at 324 nm.

`CCCNC(=O)C(C)(C)COc1cccc2c1C(N)=NS(=O)(=O)N2` [100% Compound I, 3-(4-amino-2,2-dioxide-1H-benzo[c][1,2,6]thiadiazin-5-yloxy)-2′,2′-dimethyl-N-propylpropanamide] showed a Concentration in solution (Compound I in solution at 0.083 min) of −0.5 ppm, a Concentration in solution (Compound I in solution at 2 min) of 0.4 ppm and a Concentration in solution (Compound I in solution at 5 min) of 1.4 ppm. For the same molecule, the Concentration in solution (Compound I in solution at 10 min) was 3.5 ppm, the Concentration in solution (Compound I in solution at 25 min) was 8.3 ppm and the Concentration in solution (Compound I in solution at 50 min) was 14.5 ppm. The Concentration in solution (Compound I in solution at 100 min) was 20.9 ppm.

From patent US11993821B2, “Co-crystallized sweeteners” (FIRMENICH SA, priority 2012, dated 2024)
